Source: US8293751B2, “1,2,3-trisubstituted aryl and heteroaryl derivatives as modulators of metabolism and the prophylaxis and treatment of disorders related thereto such as diabetes and hyperglycemia” (Arena Pharmaceuticals, Inc., priority 2003, dated 2012)
Entries after “also recorded” stand apart in the source; their conditions may differ.

How the values were obtained:
[1] = test system: C57bl/6N mice; assay: Oral glucose tolerance test (oGTT) in mice; format: in vivo; settings: male C57bl/6N mice fasted 18 hours; p.o. 30 min before oral dextrose 5 g/kg; FIG. 5A
Protocol: A. Oral Glucose Tolerance Test (oGTT) (FIG. 5A).
Male C57bl/6N mice at age of 8 weeks were fasted for 18 hours and randomly grouped (n=11) to receive a RUP3 agonist (Compound B70) at indicated doses, or with control extendin-4 (ex-4, 1 μg/kg), a GLP-1 peptide analog known to stimulate glucose-dependent insulin secretion. Compound B70 was delivered orally via a gavage needle (p.o. volume at 100 μl). Control Ex-4 was delivered intraperitoneally. Thirty minutes after administration of test compound and control ex4, mice were administered orally with dextrose at 5 g/kg dose. Levels of blood glucose were determined at the indicated time points using Glucometer Elite XL (Bayer).

[2] = test system: db mice (C57BL/KsOlahsd-Leprdb, diabetic); assay: Acute response of db mice to RUP3 agonist (blood glucose); format: in vivo; settings: male db mice; 60 mg/kg, oral gavage; FIG. 5B
Protocol: B. […] Male db mice (C57BL/KsOlahsd-Leprdb, diabetic, Harlan) at age of 10 weeks were randomly grouped (n=6) to receive vehicle (oral gavage), Compound B70 (60 mg/kg, oral gavage), or Ex-4 (1 μg/kg, intraperitoneally). After compound administration, food was removed and blood glucose levels were determined at indicated times as shown in FIG. 5B. Reduction in blood glucose at each time point was expressed as percentage of original glucose levels, averaged from six animals for each group.

[3] = molecular target: T1, RUP3 (Homo sapiens, UniProt Q8TDV5); assay: 96-Well Cyclic AMP Membrane Assay for RUP3 (Membrane Cyclase Assay); format: biochemical; settings: RUP3 membranes, cAMP Flashplate
T1 construct: seen in the listing only (N); seen in the listing only (C); expressed in transfected cells
T1 sequence (Q8TDV5 with tags, fused parts or gaps): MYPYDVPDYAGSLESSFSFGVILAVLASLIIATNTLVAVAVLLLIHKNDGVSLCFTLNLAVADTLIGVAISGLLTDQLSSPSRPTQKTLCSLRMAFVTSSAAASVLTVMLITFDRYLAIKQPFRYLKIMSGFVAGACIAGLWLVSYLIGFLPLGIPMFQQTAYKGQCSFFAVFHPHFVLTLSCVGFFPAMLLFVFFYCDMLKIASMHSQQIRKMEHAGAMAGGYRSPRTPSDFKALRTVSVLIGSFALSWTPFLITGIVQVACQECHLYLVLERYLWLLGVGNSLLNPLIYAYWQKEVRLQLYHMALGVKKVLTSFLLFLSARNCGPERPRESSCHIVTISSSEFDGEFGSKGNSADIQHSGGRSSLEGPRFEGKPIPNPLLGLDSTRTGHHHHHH
Protocol: 96-Well Cyclic AMP Membrane Assay for RUP3
Binding Buffer—filter through […] Nalgene filter and keep in refrigerator. All buffers and membranes should be kept cold (in ice bucket) while performing assay. • 20 mM Hepes, pH7.4 • 1 mM MgCl2 • 100 mM NaCl • 2× Regeneration Buffer (make in binding buffer): • 20 mM Phosphocreatine (1.02 gm/200 ml binding buffer) • 20 units Creatine phosphokinase (4 mg/200 ml) • 20 uM GTP (make up 10.46 mg/ml in binding buffer and add 200 ul/200 ml) • 0.2 mM ATP (22.04 mg/200 ml) • […] IBMX (44.4 mg IBMX dissolved in 1 ml 100% DMSO first and then add the entire amount to 200 ml of buffer).
Regeneration buffer can be aliquotted into 40-45 ml portions (in 50 ml sterile tubes) and kept frozen for up to 2 months. Simply put the tube in a beaker with room temperature water to thaw out the regeneration buffer on the day of the assay. […]
IC50s or EC50s are done in triplicate. […] The membranes are kept in ice all the time, and a polytron (Brinkmann polytron, model #PT-3100) is used (setting 6-7, for 15-20 seconds) to obtain a homogeneous membrane suspension.) Protein concentration is determined by Bradford protein assay kit using instructions given in the kit, using the standard supplied with the kit as a reference. […]

O=[N+]([O-])c1c(Nc2ccc(-n3cncn3)cc2)ncnc1N1CCC(Sc2ccccn2)CC1 [Compound B70, {5-Nitro-6-[4-(pyridin-2-ylsulfanyl)-piperidin-1-yl]-pyrimidin-4-yl}-(4-[1,2,4]triazol-1-yl-phenyl)-amine]
blood glucose after glucose challenge (oGTT) [1]: lowered blood glucose in a dose-dependent manner; also recorded: in a dose-dependent manner on the lowering of blood glucose after glucose challenge | blood glucose levels compared to vehicle control [2]: significantly reduces glucose levels compared to vehicle control | IC50 [3]: 129 nM
